Type in all cases: in vivo
One test deals with Ctenocephalides felis. The experiment in a line: Ctenocephalides felis in-vitro contact test, adult cat flea. The following applies: 5 μg/cm^2 (=500 g/ha), after 48 hours, adult cat fleas, read-out: efficacy (fleas dead or moribund). Summed up:
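Compound in acetone coated onto inner walls of glass tubes, e.g. 900 ppm giving 5 μg/cm². After drying, 5–10 adult C. felis added per tube and held at room temperature. At 48 h, fleas unable to escape a 45–50 °C heating plate within 5 min scored dead/moribund, giving % efficacy.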

For test [1], the system named is Musca domestica strain WHO-N. The experiment in a line: Musca domestica test (MUSCDO surface treatment & contact assay). Conditions: 24 hours after contact, read-out: efficacy (mortality); for mortality at 4 mg/m2: surface concentration 4 mg/m^2, exposure 30 minutes; for mortality at 20 mg/m2: surface concentration 20 mg/m^2, exposure 30 minutes. Summed up:
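Adult WHO-N flies exposed for 30 minutes on a glazed tile coated with compound dissolved in acetone (2 mg/ml) with 2000 ppm rapeseed oil methyl ester, acetone evaporated. Percent mortality read 24 hours after contact.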

The next test concerns Nezara viridula. The experiment in a line: Nezara viridula spray test. The following applies: 96 h, after 4 days, larvae on barley plants. Summed up:
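Mortality (%) was assessed at day 4, from 0% (no bugs dead) to 100% (all dead). The spray solution was compound diluted to test concentration in water with 1000 ppm emulsifier and applied to barley carrying southern green stink bug larvae.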

In a further test the test system is Diabrotica balteata. Nature of the test: Diabrotica balteata spray test. Conditions: Diabrotica balteata, in Triticum aestivum, 168 h, after 7 days, larvae on wheat seeds, read-out: efficacy (seedlings grown up); for pest or weed control at 80 µg/disc, 250 g/ha: 80 μg/well (=250 g/ha); for pest or weed control at 160 µg/disc, 500 g/ha: 160 μg/well (=500 g/ha). The method in brief:
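Scoring at 7 days compares seedling growth with untreated, uninfested controls (100% = equal growth, 0% = none grown). Wheat seedlings germinated 1 day on agar, 5 per well, received a spray of test solution made in 1000 ppm emulsifier water. Each unit then received 10–20 beetle larvae.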

In the next test the test system is Myzus persicae. Nature of the test: Myzus persicae oral test. Conditions: 120 h, 4 ppm, after 5 days. The method in brief: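 Aphid mortality (%) was recorded 5 days after a mixed Myzus persicae population began sucking, through parafilm, on compound solutions (acetone stock diluted with water) combined with sugar-supplemented IPL41 medium.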
The next test relates to Spodoptera frugiperda. Nature of the test: Spodoptera frugiperda spray test. The following applies: 168 h, after 7 days, larvae on maize leaf sections. Summed up:
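Leaf-spray assay on maize: sections treated with active ingredient at the desired concentration in emulsifier-containing water (1000 ppm) and, once dry, exposed to armyworm caterpillars. Kill rate is expressed in percent after seven days.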

Test [2] concerns Aedes aegypti strain MONHEIM. Nature of the test: Aedes aegypti test (AEDSAE surface treatment & contact assay). The following applies: 24 hours after contact, read-out: efficacy (mortality); for mortality at 4 mg/m2: surface concentration 4 mg/m^2, exposure 30 minutes; for mortality at 20 mg/m2: surface concentration 20 mg/m^2, exposure 30 minutes. Summed up:
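Compound dissolved in acetone (2 mg/ml) with 2000 ppm rapeseed oil methyl ester, applied to glazed tile and dried; adult strain MONHEIM mosquitoes exposed 30 minutes. Percent mortality scored 24 hours after contact.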

Test [3] has as its system Anopheles funestus strain FUMOZ-R. Nature of the test: Anopheles funestus test (ANPHFU surface treatment & contact assay). The following applies: 24 hours after contact, read-out: efficacy (mortality); for mortality at 4 mg/m2: surface concentration 4 mg/m^2, exposure 30 minutes; for mortality at 20 mg/m2: surface concentration 20 mg/m^2, exposure 30 minutes. Summed up:
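Compound dissolved in acetone (2 mg/ml) with 2000 ppm rapeseed oil methyl ester and applied to a glazed tile. After acetone evaporation, adult FUMOZ-R mosquitoes were exposed to the dried surface for 30 min. Percent mortality was scored 24 h after contact.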

By mortality is commonly meant the percentage killed.

Consider `C[C@H](NC(=O)c1cc(Cl)cc(OC(F)(F)F)c1)c1ncnn1-c1ccc(C#N)cn1` [Example I-041, 3-chloro-N-{(1S)-1-[1-(5-cyanopyridin-2-yl)-1H-1,2,4-triazol-5-yl]ethyl}-5-(trifluoromethoxy)benzamide], for which the pest or weed control at 5 µg/cm2 in the test with Ctenocephalides felis came to 100%. For the same compound, in test [1], the mortality at 4 mg/m2 fell in the range of 90 to 100% and the mortality at 20 mg/m2 fell in the range of 90 to 100%. In the test with Nezara viridula, the mortality at 100 g/ha came to 100% and the mortality at 500 g/ha is 100%. In addition, in the test with Diabrotica balteata, the pest or weed control at 80 µg/disc, 250 g/ha was 100% and the pest or weed control at 160 µg/disc, 500 g/ha was 100%. This compound also had a mortality at 4 ppm with Myzus persicae of 100%. In the test on Spodoptera frugiperda, this compound returned a mortality at 100 g/ha of 100% and a mortality at 500 g/ha of 100%. Besides, in test [2], the mortality at 4 mg/m2 was 90 to 100% and the mortality at 20 mg/m2 lay in the range of 90 to 100%. In test [3], the mortality at 4 mg/m2 lay in the range of 85 to 100% and the mortality at 20 mg/m2 is 90 to 100%.
As to `C[C@H](NC(=O)c1cc(Cl)cc(SC(F)(F)F)c1)c1ncnn1-c1ccc(C#N)cn1` [Example I-042], in the test on Ctenocephalides felis, the pest or weed control at 5 µg/cm2 stood at 90%. Further, the mortality at 4 mg/m2 was 90 to 100% in test [1], 90 to 100% in test [2] and 85 to 100% in test [3]. For the same compound, the mortality at 20 mg/m2 in test [1], in test [2] and in test [3] was 90 to 100% throughout. The mortality at 100 g/ha with Nezara viridula and in the test with Spodoptera frugiperda was 100% each time. Also, the mortality at 500 g/ha in the test with Nezara viridula and in the test on Spodoptera frugiperda was 100% throughout. In addition, in the test on Diabrotica balteata, the pest or weed control at 80 µg/disc, 250 g/ha turned out to be 100%. Also, the pest or weed control at 160 µg/disc, 500 g/ha in the test with Diabrotica balteata was 100%. The compound further showed a mortality at 4 ppm in the test with Myzus persicae of 100%.
Take `C[C@H](NC(=O)c1cc(Cl)cc(S(F)(F)(F)(F)F)c1)c1ncnn1-c1ccc(C#N)cn1` [Example I-048]: in the test on Ctenocephalides felis, the pest or weed control at 5 µg/cm2 is 100%. Also, in test [1], the mortality at 4 mg/m2 was in the range of 90 to 100% and the mortality at 20 mg/m2 lay in the range of 90 to 100%. In the test on Nezara viridula, the mortality at 100 g/ha was found to be 100% and the mortality at 500 g/ha worked out at 100%. For the same compound, in the test with Diabrotica balteata, the pest or weed control at 80 µg/disc, 250 g/ha was 100% and the pest or weed control at 160 µg/disc, 500 g/ha was 100%. Moreover, in the test on Myzus persicae, the mortality at 4 ppm is 100%. In the test with Spodoptera frugiperda, the mortality at 100 g/ha is 100% and the mortality at 500 g/ha was 100%. Moreover, in test [2], the mortality at 4 mg/m2 fell in the range of 90 to 100% and the mortality at 20 mg/m2 lay within 90 to 100%. Moreover, in test [3], the mortality at 4 mg/m2 was 85 to 100%.
In the case of `Cc1nc([C@H](C)NC(=O)c2cc(Cl)cc(C(F)(F)F)c2)n(-c2ccc(C#N)cn2)n1` [Example I-049], the pest or weed control at 5 µg/cm2 in the test with Ctenocephalides felis was 100%. Further, the mortality at 4 mg/m2 in test [1] and in test [2] was 90 to 100% each time. Besides, the mortality at 20 mg/m2 in test [1], in test [2] and in test [3] was 90 to 100% each time. The mortality at 100 g/ha with Nezara viridula and with Spodoptera frugiperda was 100% each time. Further, the mortality at 500 g/ha in the test with Nezara viridula and with Spodoptera frugiperda was 100% in each case. For the same compound, the pest or weed control at 80 µg/disc, 250 g/ha with Diabrotica balteata is 80%. The pest or weed control at 160 µg/disc, 500 g/ha in the test with Diabrotica balteata was 100%. In the test with Myzus persicae, this compound returned a mortality at 4 ppm of 100%.
On to `C[C@H](NC(=O)c1cc(C(F)(F)F)cc(C(F)(F)F)c1)c1ncnn1-c1ccc(C#N)cn1` [Example I-052], for which, in the test on Ctenocephalides felis, the pest or weed control at 5 µg/cm2 is 90%. In addition, in test [1], the mortality at 4 mg/m2 was 90 to 100% and the mortality at 20 mg/m2 was in the range of 90 to 100%. In the test on Nezara viridula, the mortality at 100 g/ha was found to be 100% and the mortality at 500 g/ha was found to be 100%. Besides, in the test on Diabrotica balteata, the pest or weed control at 80 µg/disc, 250 g/ha was found to be 100% and the pest or weed control at 160 µg/disc, 500 g/ha was 100%. The compound further had a mortality at 4 ppm in the test on Myzus persicae of 100%. In the test on Spodoptera frugiperda, this compound displayed a mortality at 100 g/ha of 100% and a mortality at 500 g/ha of 100%. In test [2], the mortality at 4 mg/m2 was in the range of 90 to 100% and the mortality at 20 mg/m2 lay within 90 to 100%. In addition, the mortality at 4 mg/m2 in test [3] fell in the range of 85 to 100%.
